Reference: US20250115634A1, “LIGAND, METHOD FOR PREPARING SAME, AND USE THEREOF” (priority 2022, published 2025)

Key:
[1] = molecular target: T1, ASGPR receptor (Homo sapiens, UniProt P07306+P07307); test: Binding of Cy5-labelled ligands to ASGPR on HepG2 cell line (Kd); conditions: HepG2 cells, incubated at room temperature in the dark for 30 min
T1 construct: HepG2 cells grown to confluence of greater than 80%; endogenous in cells; host or cells: HepG2
T1 sequence (P07306 1-291): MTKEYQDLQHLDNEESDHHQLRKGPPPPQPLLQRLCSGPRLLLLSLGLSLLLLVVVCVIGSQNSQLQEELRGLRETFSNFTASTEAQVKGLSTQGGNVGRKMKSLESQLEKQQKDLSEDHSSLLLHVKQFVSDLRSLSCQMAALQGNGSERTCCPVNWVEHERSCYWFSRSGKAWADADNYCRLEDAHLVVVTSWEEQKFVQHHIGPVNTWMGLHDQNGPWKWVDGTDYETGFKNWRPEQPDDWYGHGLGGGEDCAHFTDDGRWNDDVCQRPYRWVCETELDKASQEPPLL
T1 sequence (P07307 1-311): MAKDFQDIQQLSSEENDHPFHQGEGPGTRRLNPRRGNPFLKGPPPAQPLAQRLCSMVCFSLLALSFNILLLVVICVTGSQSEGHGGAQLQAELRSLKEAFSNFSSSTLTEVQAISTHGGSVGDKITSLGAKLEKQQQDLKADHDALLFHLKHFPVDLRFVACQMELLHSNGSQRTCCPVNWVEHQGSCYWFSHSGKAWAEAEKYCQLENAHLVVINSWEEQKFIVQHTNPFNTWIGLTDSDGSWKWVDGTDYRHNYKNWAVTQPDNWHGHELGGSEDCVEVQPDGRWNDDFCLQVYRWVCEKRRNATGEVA
Experimental: (§1) The binding rate of the ligand of the present disclosure to the ASGPR receptor of liver cancer cells was tested, with the ligand with hepatocellular ASGPR-targeting property, loaded in Inclisiran, a small interfering nucleic acid drug marketed by Alnylam, as a positive control (PC).
The ligand-receptor dissociation constant (Kd, which is the drug concentration required for half of the maximum effect, i.e. 50% of the receptors are occupied) was used as a measure of ligand-receptor binding capacity, and the lower the Kd value, the higher the binding capacity.
• 1. HepG2 cells grown to confluence of greater than 80% and in a good state were digested, centrifuged and counted. • 2. The test compounds were diluted with PBS to various concentration gradients. • 3. The cells were washed once with PBS, added with 100 μL of the prepared compounds, and incubated at room temperature in the dark for 30 min. • 4. After incubation, the cells were washed twice with 1 mL of PBS and detected on machine.

[2] = molecular target: T2, ASGPR receptor (Mus musculus, UniProt P24721+P34927); test: Binding of Cy5-labelled ligands to ASGPR on primary mouse liver cells (Kd); conditions: C57 mouse primary liver cells, incubated 37° C. in the dark for 30 min, trypsin to remove surface fluorescence
T2 construct: C57 mouse primary liver cells were isolated; endogenous in cells; host or cells: C57 mouse primary liver cells
T2 sequence (P34927 1-284): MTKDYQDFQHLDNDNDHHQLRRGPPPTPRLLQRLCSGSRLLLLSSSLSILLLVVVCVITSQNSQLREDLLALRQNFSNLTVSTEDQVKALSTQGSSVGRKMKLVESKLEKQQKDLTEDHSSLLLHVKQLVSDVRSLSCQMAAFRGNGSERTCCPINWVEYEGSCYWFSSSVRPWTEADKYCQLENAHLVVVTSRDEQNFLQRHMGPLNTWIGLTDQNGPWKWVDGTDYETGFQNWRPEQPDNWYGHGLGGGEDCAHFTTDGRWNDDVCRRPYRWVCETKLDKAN
T2 sequence (P24721 1-301): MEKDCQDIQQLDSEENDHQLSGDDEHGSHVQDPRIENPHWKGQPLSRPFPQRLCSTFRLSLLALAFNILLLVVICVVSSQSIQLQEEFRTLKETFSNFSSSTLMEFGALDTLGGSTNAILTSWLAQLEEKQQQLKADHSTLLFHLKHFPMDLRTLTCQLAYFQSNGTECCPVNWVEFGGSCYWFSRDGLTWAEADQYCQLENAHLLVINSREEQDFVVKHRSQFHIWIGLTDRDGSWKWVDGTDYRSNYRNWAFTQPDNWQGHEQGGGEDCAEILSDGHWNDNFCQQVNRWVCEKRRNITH
Experimental: as §1
The ligand-receptor dissociation constant (Kd, which is the drug concentration required for half of the maximum effect, i.e. 50% of the receptors are occupied) was used as a measure of ligand-receptor binding capacity; and the lower the Kd value, the higher the binding capacity.
C57 mouse primary liver cells were isolated, and the cells were in a good state, had viability of 92%, and were at a density of 2×10^5 cells/400 μL.
The test compounds were dissolved with PBS and then diluted with complete medium for primary liver cells to various concentration gradients.
The cells was added with 100 μL of the test compound solution prepared according to the set concentration gradients (the test compounds was first prepared with PBS into a stock solution, which was then diluted to the set concentration gradients with complete medium) and incubated at 37° C. in the dark for 30 min.
After incubation, the cells were washed once with 500 μL of PBS.
The cells were added with typsin to remove fluorescence on the cell surface.
The cells were washed again with 500 μL of PBS and detected on machine.

SMILES	Kd [1] [nM]	Kd [2] [nM]
CC[N+]1=C(/C=C/C=C/C=C2/c3ccccc3N(CCCCCC(=O)NCCNC(=O)CCCCCCCCCCCNC(COCCC(=O)NCCCNC(=O)CCCCOC3OC(CO)C(O)C(O)C3NC(C)=O)(COCCC(=O)NCCCNC(=O)CCCCOC3OC(CO)C(O)C(O)C3NC(C)=O)COCCC(=O)NCCCNC(=O)CCCCOC3OC(CO)C(O)C(O)C3NC(C)=O)C2(C)C)C(C)(C)c2ccccc21 (centres unmarked) [PC-Cy5, reference compound]	40.2	0.408
CC[N+]1=C(/C=C/C=C/C=C2/c3ccccc3N(CCCCCC(=O)NCCNC(=O)CCCCCCCCCCC(=O)N3C[C@H](OCC(=O)NCCOCCOC4OC(CO)C(O)C(O)C4NC(C)=O)C[C@H]3C(=O)NC(C)(COCCC(=O)NCCOCCOC3OC(CO)C(O)C(O)C3NC(C)=O)COCCC(=O)NCCOCCOC3OC(CO)C(O)C(O)C3NC(C)=O)C2(C)C)C(C)(C)c2ccccc21 (some centres unmarked) [TC10A-Cy5]		0.867
CC[N+]1=C(/C=C/C=C/C=C2/c3ccccc3N(CCCCCC(=O)NCCCC(=O)CCCCCCCCCCC(=O)N3C[C@H](OCC(=O)NCCOCCOCCOC4OC(CO)C(O)C(O)C4NC(C)=O)C[C@H]3C(=O)NC(COCCC(=O)NCCOCCOCCOC3OC(CO)C(O)C(O)C3NC(C)=O)COCCC(=O)NCCOCCOCCOC3OC(CO)C(O)C(O)C3NC(C)=O)C2(C)C)C(C)(C)c2ccccc21 (some centres unmarked) [TC12A-Cy5]		0.696
CC[N+]1=C(/C=C/C=C/C=C2/c3ccccc3N(CCCCCC(=O)NCCNC(=O)CCC(=O)Nc3cc(C(=O)NCCOCCOC4OC(CO)C(O)C(O)C4NC(C)=O)cc(C(=O)Nc4cc(C(=O)NCCOCCOC5OC(CO)C(O)C(O)C5NC(C)=O)cc(C(=O)NCCOCCOC5OC(CO)C(O)C(O)C5NC(C)=O)c4)c3)C2(C)C)C(C)(C)c2ccccc21 (centres unmarked) [TC17A-Cy5]		1.26
CC[N+]1=C(/C=C/C=C/C=C2/c3ccccc3N(CCCCCC(=O)NCCNC(=O)CCNC(=O)[C@H](CNC(=O)C(C)(COCC(=O)NCCOCCOC3OC(CO)C(O)C(O)C3NC(C)=O)COCC(=O)NCCOCCOC3OC(CO)C(O)C(O)C3NC(C)=O)NC(=O)C(C)(COCC(=O)NCCOCCOC3OC(CO)C(O)C(O)C3NC(C)=O)COCC(=O)NCCOCCOC3OC(CO)C(O)C(O)C3NC(C)=O)C2(C)C)C(C)(C)c2ccccc21 (some centres unmarked) [TEC02A-Cy5]	20.7	0.198
CC[N+]1=C(/C=C/C=C/C=C2/c3ccccc3N(CCCCCC(=O)NCCNC(=O)CCCCCCCCCCCNC(=O)[C@H](CNC(=O)C(C)(COCC(=O)NCCOCCOC3OC(CO)C(O)C(O)C3NC(C)=O)COCC(=O)NCCOCCOC3OC(CO)C(O)C(O)C3NC(C)=O)NC(=O)C(C)(CCCC(=O)NCCOCCOC3OC(CO)C(O)C(O)C3NC(C)=O)COCC(=O)NCCOCCOC3OC(CO)C(O)C(O)C3NC(C)=O)C2(C)C)C(C)(C)c2ccccc21 (some centres unmarked) [TEC06A-Cy5]		0.496
